{
  "source": "patent US7288510B2",
  "about": "“Nitrogen-containing ortho ester-based surfactant, its preparation and use” (priority 2001, dated 2007)",
  "key": {"[1]": {"test": "surface tension at a concentration of 0.1%", "assay_type": "physicochemical", "details": "pH 8 buffer solution, bubble pressure method"}, "[2]": {"test": "dynamic contact angle of alkaline formulations", "assay_type": "physicochemical", "details": "formulation diluted 1:10, on Parafilm PM-922", "protocol": "In this example, the wetting properties of alkaline formulations of some of the surfactants earlier described are tested by dynamic contact angle measurements.\nFormulations I-III above were diluted 1:10 before measurements. The dynamic contact angle was measured on a hydrophobic, polymeric material (Parafilm PM-922, American Can Company) using a First Ten Ångstroms FTÅ 200 instrument (Portsmouth, Va., USA) equipped with a video camera and an image analyzing unit."}, "[3]": {"test": "foaming behaviour (proposed ISO 4877 circulation method)", "assay_type": "physicochemical", "description": "The surfactant is dissolved in distilled water and diluted to a defined concentration. 500 ml of this solution is transferred to a thermostatable glass cylinder, graduated to 1500 ml. The solution is then circulated through a stainless steel tube using a pump. The solution enters the tube in the bottom of the glass cylinder and is released ca. 14 cm above the 1500-ml mark on the cylinder. The pump speed is 200 liter/h.\nThe solution is circulated for 10 minutes (foam level recorded each minute), the pump is then stopped, and the foam level recorded for additional 5 minutes (proposed ISO-method ISO 4877)."}, "[4]": {"details": "literature value; cited from earlier work"}, "[5]": {"test": "hydrotrope test: clarity interval of cleaning formulation", "assay_type": "physicochemical", "details": "for Active amount of hydrotrope added: amount needed until the formulation of Table 10 was clear; for Cloud point of formulation: formulation of Table 10 with the hydrotrope", "description": "[table] Tetrapotassium pyrophoshate and sodium metasilicate pentahydrate were dissolved in tap water. The ethoxylated alcohol was added to this solution, which then turned cloudy. The hydrotrope was added until the solution was clear, and the required amount was recorded. Then the temperature was raised until the mixture went cloudy again."}},
  "note": "Marks after values point to notes of the source that are not given here.",
  "data": [
    {"compound": "CCCCCCCCCCCC[N+](C)(C)C.[Br-]", "note": "[Dodecyltrimethylammonium bromide, n-dodecyltrimethylammonium bromide]", "values": [
      {"measurement": "γ at 0.10% and 21° C.", "setting": "[1]", "value": 52.5, "unit": "mN/m"},
      {"measurement": "Contact angle after 10 s", "setting": "[2]", "value": 68.2, "unit": "°"},
      {"measurement": "Contact angle after 30 s", "setting": "[2]", "value": 67.9, "unit": "°"},
      {"measurement": "Contact angle after 1 min", "setting": "[2]", "value": 67.4, "unit": "°"},
      {"measurement": "foaming behaviour in words", "setting": "[3]", "value": "not affected by the addition of acid"},
      {"measurement": "Foam Volume", "setting": "[3]; 0.01% in distilled water, 1 min, circulating", "value": 160, "unit": "mL"},
      {"measurement": "Foam Volume", "setting": "[3]; 0.01% in distilled water, 2 min, circulating", "value": 160, "unit": "mL"},
      {"measurement": "Foam Volume", "setting": "[3]; 0.01% in distilled water, 3 min, circulating", "value": 160, "unit": "mL"},
      {"measurement": "Foam Volume", "setting": "[3]; 0.01% in distilled water, 4 min, circulating", "value": 140, "unit": "mL"},
      {"measurement": "Foam Volume", "setting": "[3]; 0.01% in distilled water, 5 min, circulating", "value": 140, "unit": "mL"},
      {"measurement": "Foam Volume", "setting": "[3]; 0.01% in distilled water, 6 min, circulating", "value": 140, "unit": "mL"},
      {"measurement": "Foam Volume", "setting": "[3]; 0.01% in distilled water, 7 min, circulating", "value": 140, "unit": "mL"},
      {"measurement": "Foam Volume", "setting": "[3]; 0.01% in distilled water, 8 min, circulating", "value": 140, "unit": "mL"},
      {"measurement": "Foam Volume", "setting": "[3]; 0.01% in distilled water, 9 min, circulating", "value": 140, "unit": "mL"},
      {"measurement": "Foam Volume", "setting": "[3]; 0.01% in distilled water, 10 min, circulating", "value": 140, "unit": "mL"},
      {"measurement": "Foam Volume", "setting": "[3]; 0.01% in distilled water, 11 min, pump stopped at 10 min", "value": 0, "unit": "mL"},
      {"measurement": "Foam Volume", "setting": "[3]; 0.01% in distilled water, 12 min, pump stopped at 10 min", "value": 0, "unit": "mL"},
      {"measurement": "Foam Volume", "setting": "[3]; 0.01% in distilled water, 13 min, pump stopped at 10 min", "value": 0, "unit": "mL"},
      {"measurement": "Foam Volume", "setting": "[3]; 0.01% in distilled water, 14 min, pump stopped at 10 min", "value": 0, "unit": "mL"},
      {"measurement": "Foam Volume", "setting": "[3]; 0.01% in distilled water, 15 min, pump stopped at 10 min", "value": 0, "unit": "mL"},
      {"measurement": "Foam Volume", "setting": "[3]; 0.1% acid treated (pH 2.5, sulfuric acid, stirred 10 minutes), 1 min, circulating", "value": 820, "unit": "mL"},
      {"measurement": "Foam Volume", "setting": "[3]; 0.1% acid treated (pH 2.5, sulfuric acid, stirred 10 minutes), 2 min, circulating", "value": 1100, "unit": "mL"},
      {"measurement": "Foam Volume", "setting": "[3]; 0.1% acid treated (pH 2.5, sulfuric acid, stirred 10 minutes), 3 min, circulating", "value": 1280, "unit": "mL"},
      {"measurement": "Foam Volume", "setting": "[3]; 0.1% acid treated (pH 2.5, sulfuric acid, stirred 10 minutes), 4 min, circulating", "value": 1360, "unit": "mL"},
      {"measurement": "Foam Volume", "setting": "[3]; 0.1% acid treated (pH 2.5, sulfuric acid, stirred 10 minutes), 5 min, circulating", "value": 1380, "unit": "mL"},
      {"measurement": "Foam Volume", "setting": "[3]; 0.1% acid treated (pH 2.5, sulfuric acid, stirred 10 minutes), 6 min, circulating", "value": 1380, "unit": "mL"},
      {"measurement": "Foam Volume", "setting": "[3]; 0.1% acid treated (pH 2.5, sulfuric acid, stirred 10 minutes), 7 min, circulating", "value": 1360, "unit": "mL"},
      {"measurement": "Foam Volume", "setting": "[3]; 0.1% acid treated (pH 2.5, sulfuric acid, stirred 10 minutes), 8 min, circulating", "value": 1360, "unit": "mL"},
      {"measurement": "Foam Volume", "setting": "[3]; 0.1% acid treated (pH 2.5, sulfuric acid, stirred 10 minutes), 9 min, circulating", "value": 1350, "unit": "mL"},
      {"measurement": "Foam Volume", "setting": "[3]; 0.1% acid treated (pH 2.5, sulfuric acid, stirred 10 minutes), 10 min, circulating", "value": 1340, "unit": "mL"},
      {"measurement": "Foam Volume", "setting": "[3]; 0.1% acid treated (pH 2.5, sulfuric acid, stirred 10 minutes), 11 min, pump stopped at 10 min", "value": 800, "unit": "mL"},
      {"measurement": "Foam Volume", "setting": "[3]; 0.1% acid treated (pH 2.5, sulfuric acid, stirred 10 minutes), 12 min, pump stopped at 10 min", "value": 340, "unit": "mL"},
      {"measurement": "Foam Volume", "setting": "[3]; 0.1% acid treated (pH 2.5, sulfuric acid, stirred 10 minutes), 13 min, pump stopped at 10 min", "value": 280, "unit": "mL"},
      {"measurement": "Foam Volume", "setting": "[3]; 0.1% acid treated (pH 2.5, sulfuric acid, stirred 10 minutes), 14 min, pump stopped at 10 min", "value": 120, "unit": "mL"},
      {"measurement": "Foam Volume", "setting": "[3]; 0.1% acid treated (pH 2.5, sulfuric acid, stirred 10 minutes), 15 min, pump stopped at 10 min", "value": 60, "unit": "mL"},
      {"measurement": "Foam Volume", "setting": "[3]; 0.1% in distilled water, 1 min, circulating", "value": 780, "unit": "mL"},
      {"measurement": "Foam Volume", "setting": "[3]; 0.1% in distilled water, 2 min, circulating", "value": 1080, "unit": "mL"},
      {"measurement": "Foam Volume", "setting": "[3]; 0.1% in distilled water, 3 min, circulating", "value": 1260, "unit": "mL"},
      {"measurement": "Foam Volume", "setting": "[3]; 0.1% in distilled water, 4 min, circulating", "value": 1340, "unit": "mL"},
      {"measurement": "Foam Volume", "setting": "[3]; 0.1% in distilled water, 5 min, circulating", "value": 1370, "unit": "mL"},
      {"measurement": "Foam Volume", "setting": "[3]; 0.1% in distilled water, 6 min, circulating", "value": 1360, "unit": "mL"},
      {"measurement": "Foam Volume", "setting": "[3]; 0.1% in distilled water, 7 min, circulating", "value": 1360, "unit": "mL"},
      {"measurement": "Foam Volume", "setting": "[3]; 0.1% in distilled water, 8 min, circulating", "value": 1340, "unit": "mL"},
      {"measurement": "Foam Volume", "setting": "[3]; 0.1% in distilled water, 9 min, circulating", "value": 1320, "unit": "mL"},
      {"measurement": "Foam Volume", "setting": "[3]; 0.1% in distilled water, 10 min, circulating", "value": 1320, "unit": "mL"},
      {"measurement": "Foam Volume", "setting": "[3]; 0.1% in distilled water, 11 min, pump stopped at 10 min", "value": 1200, "unit": "mL"},
      {"measurement": "Foam Volume", "setting": "[3]; 0.1% in distilled water, 12 min, pump stopped at 10 min", "value": 800, "unit": "mL"},
      {"measurement": "Foam Volume", "setting": "[3]; 0.1% in distilled water, 13 min, pump stopped at 10 min", "value": 400, "unit": "mL"},
      {"measurement": "Foam Volume", "setting": "[3]; 0.1% in distilled water, 14 min, pump stopped at 10 min", "value": 260, "unit": "mL"},
      {"measurement": "Foam Volume", "setting": "[3]; 0.1% in distilled water, 15 min, pump stopped at 10 min", "value": 180, "unit": "mL"},
      {"measurement": "cmc at 21° C.", "setting": "[4]", "value": "4.9^c g/l"}
    ]},
    {"compound": "CC(C)c1ccc(S(=O)(=O)[O-])cc1.[Na+]", "note": "[Sodium cumene sulfonate]", "values": [
      {"measurement": "Active amount of hydrotrope added", "setting": "[5]", "value": "9.0 % (w/w)"},
      {"measurement": "Cloud point of formulation", "setting": "[5]", "value": "45-50 °C"}
    ]},
    {"compound": "CCCCCCCCCCCCCC[N+](C)(C)C.[Br-]", "note": "[Tetradecyltrimethylammonium bromide, n-tetradecyltrimethylammonium bromide]", "values": [
      {"measurement": "γ at 0.10% and 21° C.", "setting": "[1]", "value": 41.5, "unit": "mN/m"},
      {"measurement": "Contact angle after 10 s", "setting": "[2]", "value": 60.4, "unit": "°"},
      {"measurement": "Contact angle after 30 s", "setting": "[2]", "value": 60.1, "unit": "°"},
      {"measurement": "Contact angle after 1 min", "setting": "[2]", "value": 59.1, "unit": "°"},
      {"measurement": "cmc at 21° C.", "setting": "[4]", "value": "1.2^d g/l"}
    ]},
    {"compound": "disodium octyliminodipropionate", "values": [
      {"measurement": "Active amount of hydrotrope added", "setting": "[5]", "value": "6.0 % (w/w)"},
      {"measurement": "Cloud point of formulation", "setting": "[5]", "value": "45-50 °C"}
    ]}
  ]
}
